Data on 11 compounds can be found in BindingDB's records for doi:10.1016/s0960-894x(01)00219-0 (Research Biomet. Glaxo Wellcome Medicines Research Centre, 2001).

A short description of experiment [1]: Inhibition of c-erbB-2 overexpressing HB4a cell proliferation.
The target in experiment [2] is Receptor tyrosine-protein kinase erbB-2 (Rattus norvegicus, UniProt P06494). The experiment can be described thus: ChEBML_194950. From the text: Inhibition of rat Receptor protein-tyrosine kinase erbB2
Experiment [3] can be described thus: Inhibition of erbB2 overexpressing HB4a.e5.2 cell proliferation.
Experiment [4] in a line: Inhibition of erbB2 overexpressing BT 474 cell proliferation.

Sequence of Receptor tyrosine-protein kinase erbB-2 (P06494 whole entry): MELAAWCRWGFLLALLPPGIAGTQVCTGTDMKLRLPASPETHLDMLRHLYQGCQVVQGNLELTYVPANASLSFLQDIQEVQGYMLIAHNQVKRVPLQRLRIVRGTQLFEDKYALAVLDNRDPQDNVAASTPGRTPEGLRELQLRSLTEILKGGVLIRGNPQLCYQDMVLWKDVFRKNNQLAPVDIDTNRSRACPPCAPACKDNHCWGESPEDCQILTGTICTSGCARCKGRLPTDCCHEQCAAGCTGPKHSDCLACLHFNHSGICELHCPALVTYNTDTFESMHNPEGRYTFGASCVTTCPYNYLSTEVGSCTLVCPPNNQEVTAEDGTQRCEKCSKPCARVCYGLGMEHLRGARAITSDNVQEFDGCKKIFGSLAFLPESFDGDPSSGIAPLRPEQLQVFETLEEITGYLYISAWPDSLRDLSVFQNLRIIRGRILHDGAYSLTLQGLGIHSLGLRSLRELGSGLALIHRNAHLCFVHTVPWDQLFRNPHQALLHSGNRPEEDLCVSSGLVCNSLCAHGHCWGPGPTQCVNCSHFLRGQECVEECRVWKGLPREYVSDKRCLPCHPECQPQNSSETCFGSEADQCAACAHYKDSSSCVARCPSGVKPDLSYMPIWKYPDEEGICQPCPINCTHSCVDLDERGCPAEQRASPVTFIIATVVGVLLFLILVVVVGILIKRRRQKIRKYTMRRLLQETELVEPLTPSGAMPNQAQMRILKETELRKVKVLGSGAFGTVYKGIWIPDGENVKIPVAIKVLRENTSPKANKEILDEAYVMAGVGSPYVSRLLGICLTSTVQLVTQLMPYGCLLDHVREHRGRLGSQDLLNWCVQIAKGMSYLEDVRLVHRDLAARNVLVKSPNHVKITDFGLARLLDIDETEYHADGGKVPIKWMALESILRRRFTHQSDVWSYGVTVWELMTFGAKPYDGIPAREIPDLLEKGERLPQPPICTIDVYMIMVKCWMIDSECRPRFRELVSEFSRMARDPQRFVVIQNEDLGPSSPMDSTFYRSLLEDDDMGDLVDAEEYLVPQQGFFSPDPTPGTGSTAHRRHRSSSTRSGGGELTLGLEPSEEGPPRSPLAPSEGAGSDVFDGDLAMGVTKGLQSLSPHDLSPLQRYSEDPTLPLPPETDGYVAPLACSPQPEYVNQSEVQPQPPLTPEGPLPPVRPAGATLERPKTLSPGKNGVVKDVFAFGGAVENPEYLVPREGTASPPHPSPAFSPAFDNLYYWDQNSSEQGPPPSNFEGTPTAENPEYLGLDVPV

In experiment [1], `c1ccc(Cn2cnc3cc(Nc4ncnc5ccccc45)ccc32)cc1` [(1-Benzyl-1H-benzoimidazol-5-yl)-quinazolin-4-yl-amine] had an IC50 of 27000 nM.

`COc1cc2ncnc(Nc3ccc4nn(Cc5ccccc5)cc4c3)c2cc1OC` [(2-Benzyl-2H-indazol-5-yl)-(6,7-dimethoxy-quinazolin-4-yl)-amine] returned a half-inhibitory concentration (IC50) in experiment [1] of 3100 nM. Same read-out and setting: with `c1ccc(Cn2cnc3ccc(Nc4ncnc5ccccc45)cc32)cc1` [(3-Benzyl-3H-benzoimidazol-5-yl)-quinazolin-4-yl-amine] the figure was 21000 nM. The same measure, in the same setting: with `COc1cc2ncnc(Nc3ccc4nc(Cc5ccccc5)[nH]c4c3)c2cc1OC` [(2-Benzyl-1H-benzoimidazol-5-yl)-(6,7-dimethoxy-quinazolin-4-yl)-amine] the figure was 1100 nM; with `COc1cc2ncnc(Nc3ccc4c(cnn4Cc4ccccc4)c3)c2cc1OC` [(1-Benzyl-1H-indazol-5-yl)-(6,7-dimethoxy-quinazolin-4-yl)-amine], 290 nM. Compound `COc1cc2ncnc(Nc3ccc4c(ccn4Cc4ccccc4)c3)c2cc1OC` [(1-Benzyl-1H-indol-5-yl)-(6,7-dimethoxy-quinazolin-4-yl)-amine] displayed an IC50 in experiment [1] of 350 nM. On to `Nc1cc2c(Nc3ccc4nc(Cc5ccccc5)[nH]c4c3)ncnc2cn1` [N*4*-(2-Benzyl-1H-benzoimidazol-5-yl)-pyrido[3,4-d]pyrimidine-4,6-diamine], for which the IC50 in experiment [1] worked out at 1860 nM. Same read-out and setting: with `c1ccc(Cn2ccc3cc(Nc4ncnc5ccccc45)ccc32)cc1` [(1-Benzyl-1H-indol-5-yl)-quinazolin-4-yl-amine] the figure was 1300 nM. On the same count and under the same terms, with `Nc1cc2c(Nc3ccc4c(cnn4Cc4ccccc4)c3)ncnc2cn1` [N*4*-(1-Benzyl-1H-indazol-5-yl)-pyrido[3,4-d]pyrimidine-4,6-diamine] the figure was 97 nM; with `c1ccc(Cc2nc3ccc(Nc4ncnc5ccccc45)cc3[nH]2)cc1` [(2-Benzyl-1H-benzoimidazol-5-yl)-quinazolin-4-yl-amine], 1300 nM.

Consider `CN(C)c1cc2c(Nc3ccc4c(cnn4Cc4ccccc4)c3)ncnc2cn1` [N*4*-(1-Benzyl-1H-indazol-5-yl)-N*6*,N*6*-dimethyl-pyrido[3,4-d]pyrimidine-4,6-diamine], for which the concentration for half-maximal inhibition (IC50) in experiment [2] was 390 nM; in experiment [3], 97 nM; in experiment [4], 70 nM.

In general, IC50 refers to the concentration that gives 50% inhibition. A higher IC50 goes with lower potency.
